The target in experiment [1] is T1, Serine/threonine-protein kinase Sgk2 (Homo sapiens) (UniProt Q9HBY8).
T1 sequence (whole entry): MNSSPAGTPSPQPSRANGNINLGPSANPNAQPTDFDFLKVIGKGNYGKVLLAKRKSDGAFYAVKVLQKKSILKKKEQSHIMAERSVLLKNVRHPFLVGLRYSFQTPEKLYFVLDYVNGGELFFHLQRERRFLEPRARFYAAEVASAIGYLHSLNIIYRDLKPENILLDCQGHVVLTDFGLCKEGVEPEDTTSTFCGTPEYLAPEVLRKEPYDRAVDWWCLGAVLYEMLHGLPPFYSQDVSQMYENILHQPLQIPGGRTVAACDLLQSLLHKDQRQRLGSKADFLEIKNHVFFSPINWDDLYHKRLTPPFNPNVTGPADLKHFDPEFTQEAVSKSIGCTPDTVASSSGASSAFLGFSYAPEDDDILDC
Description: Selectivity interaction (Kinase panel (Z-LYTE Assay)) EUB0001632a SGK2. The settings on record: at 10 µM.

Experiment [2] has as its target T2, Tyrosine-protein kinase JAK3 (Homo sapiens, UniProt P52333).
T2 sequence (P52333 whole entry): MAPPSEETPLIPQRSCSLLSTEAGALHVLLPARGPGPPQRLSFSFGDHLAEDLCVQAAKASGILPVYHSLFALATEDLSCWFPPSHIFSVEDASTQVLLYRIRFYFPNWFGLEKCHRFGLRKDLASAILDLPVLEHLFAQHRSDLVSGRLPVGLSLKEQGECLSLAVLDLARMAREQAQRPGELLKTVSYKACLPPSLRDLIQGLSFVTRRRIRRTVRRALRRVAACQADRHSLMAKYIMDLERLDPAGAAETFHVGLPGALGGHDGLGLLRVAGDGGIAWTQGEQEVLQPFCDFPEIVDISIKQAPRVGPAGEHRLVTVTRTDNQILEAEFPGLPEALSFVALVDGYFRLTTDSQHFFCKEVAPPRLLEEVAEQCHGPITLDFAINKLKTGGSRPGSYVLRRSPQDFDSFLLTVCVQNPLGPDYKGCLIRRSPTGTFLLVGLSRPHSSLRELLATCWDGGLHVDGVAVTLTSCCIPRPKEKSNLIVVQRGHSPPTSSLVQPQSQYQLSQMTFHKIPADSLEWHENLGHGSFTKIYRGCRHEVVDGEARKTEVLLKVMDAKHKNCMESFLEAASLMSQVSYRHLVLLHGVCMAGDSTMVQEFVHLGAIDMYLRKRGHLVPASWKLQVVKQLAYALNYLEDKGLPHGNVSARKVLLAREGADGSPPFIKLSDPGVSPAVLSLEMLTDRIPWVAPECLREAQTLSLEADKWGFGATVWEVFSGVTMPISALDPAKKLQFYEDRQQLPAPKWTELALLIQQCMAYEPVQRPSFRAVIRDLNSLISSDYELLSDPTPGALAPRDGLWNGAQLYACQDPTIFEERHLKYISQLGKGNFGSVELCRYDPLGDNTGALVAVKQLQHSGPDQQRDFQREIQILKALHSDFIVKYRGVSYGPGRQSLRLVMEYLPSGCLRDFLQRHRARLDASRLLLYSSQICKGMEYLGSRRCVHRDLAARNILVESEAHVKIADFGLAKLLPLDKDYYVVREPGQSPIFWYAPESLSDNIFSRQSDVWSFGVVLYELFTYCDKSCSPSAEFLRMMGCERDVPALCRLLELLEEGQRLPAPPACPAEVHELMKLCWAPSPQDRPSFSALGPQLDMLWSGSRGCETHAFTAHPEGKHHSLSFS

The target of experiment [3] is T3, Receptor-interacting serine/threonine-protein kinase 1 (Homo sapiens) (UniProt Q13546).
T3 sequence (whole entry): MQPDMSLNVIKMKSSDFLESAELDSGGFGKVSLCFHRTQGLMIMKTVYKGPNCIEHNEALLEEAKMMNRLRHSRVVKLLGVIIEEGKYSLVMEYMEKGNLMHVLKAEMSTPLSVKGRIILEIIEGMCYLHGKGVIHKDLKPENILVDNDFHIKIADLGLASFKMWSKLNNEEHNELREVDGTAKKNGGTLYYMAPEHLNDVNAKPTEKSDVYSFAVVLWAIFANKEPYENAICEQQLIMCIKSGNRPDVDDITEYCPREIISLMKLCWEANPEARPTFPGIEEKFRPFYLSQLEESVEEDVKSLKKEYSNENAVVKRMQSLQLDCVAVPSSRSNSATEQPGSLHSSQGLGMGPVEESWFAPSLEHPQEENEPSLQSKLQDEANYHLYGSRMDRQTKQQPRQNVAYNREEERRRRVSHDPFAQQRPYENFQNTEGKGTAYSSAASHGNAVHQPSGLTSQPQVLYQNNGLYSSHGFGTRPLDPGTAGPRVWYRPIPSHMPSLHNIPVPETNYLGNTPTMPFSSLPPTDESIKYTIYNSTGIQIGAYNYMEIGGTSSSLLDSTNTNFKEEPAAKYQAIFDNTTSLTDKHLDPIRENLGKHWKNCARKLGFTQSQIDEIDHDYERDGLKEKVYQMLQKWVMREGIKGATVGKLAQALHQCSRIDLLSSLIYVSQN
As to the kind of experiment: Selectivity interaction (KinomeScan (DiscoverX)) EUB0000618a RIPK1. The settings on record: at 10 µM.

pIC50: −log10 of the molar value.

Turning to `Cn1cc(-n2cnc3c(NCc4nc5cc(Cl)c(Cl)cc5[nH]4)nc(N4CCOCC4)nc32)cn1`, the % of control in experiment [1] was found to be 8.85%.

`CCc1cccc(CC)c1NC(=O)c1nn(C)c2c1CCc1cnc(Nc3ccc(C(=O)NC4CCN(C)CC4)cc3OC(F)(F)F)nc1-2` had a pIC50 in experiment [2] below 5.00. As to `O[C@H]1CC[C@H](Nc2ncc3nc(Nc4c(F)cc(F)cc4F)n([C@H]4CCOC4)c3n2)CC1`, the % of control in experiment [3] was found to be 100%.

The values above are taken from ChEMBL document CHEMBL5465560, “Selectivity Literature for EUbOPEN Chemogenomic Library” (2024).
